Target: T1, Bile acid receptor (Homo sapiens, UniProt Q96RI1)
T1 sequence (Q96RI1 whole entry): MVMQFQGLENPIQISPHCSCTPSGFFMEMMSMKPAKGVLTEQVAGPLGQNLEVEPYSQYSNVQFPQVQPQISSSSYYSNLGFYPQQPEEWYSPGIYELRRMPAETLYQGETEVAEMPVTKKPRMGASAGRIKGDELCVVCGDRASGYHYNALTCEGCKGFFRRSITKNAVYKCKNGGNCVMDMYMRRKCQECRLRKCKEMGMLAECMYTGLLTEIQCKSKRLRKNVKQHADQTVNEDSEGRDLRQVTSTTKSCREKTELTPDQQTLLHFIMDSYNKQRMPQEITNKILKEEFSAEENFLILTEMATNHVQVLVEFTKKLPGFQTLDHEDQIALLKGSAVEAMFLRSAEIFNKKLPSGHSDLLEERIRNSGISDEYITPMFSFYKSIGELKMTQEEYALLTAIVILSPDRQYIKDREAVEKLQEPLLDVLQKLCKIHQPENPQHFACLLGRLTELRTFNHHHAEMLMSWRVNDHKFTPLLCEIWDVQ
Assay: Cotransfection Assay
Conditions: pH 7.2; 37 °C

## O=C(O)c1cccc(/C=C/c2ccc(OCc3c(-c4c(Cl)cccc4Cl)noc3-c3ccc(-c4ccccc4)cc3)cc2Cl)c1 [3-[(E)-2-(2-chloro-4-{[3-(2,6-dichlorophenyl)-5-(4-phenylphenyl)-1,2-oxazol-4-yl]methoxy}phenyl)ethenyl]benzoic acid]
  EC50: 33.9 µM

## O=C(O)c1cccc(NC(=O)c2ccc(OCc3c(-c4c(Cl)cccc4Cl)noc3-c3ccc4ccccc4c3)cc2Cl)c1 [3-[(2-chloro-4-{[3-(2,6-dichlorophenyl)-5-(naphthalen-2-yl)-1,2-oxazol-4-yl]methoxy}benzene)amido]benzoic acid]
  EC50: 4 µM

## O=C(O)c1cccc(/C=C/c2ccc(OCc3c(-c4c(Cl)cccc4Cl)noc3-c3ccc4ccccc4c3)cc2Cl)c1 [3-[(E)-2-(2-chloro-4-{[3-(2,6-dichlorophenyl)-5-(naphthalen-2-yl)-1,2-oxazol-4-yl]methoxy}phenyl)ethenyl]benzoic acid]
  EC50: 22.2 µM

## O=C(O)c1cccc(/C=C/c2ccc(OCc3c(-c4c(Cl)cccc4Cl)noc3-c3ccccc3)cc2Cl)c1 [3-[(E)-2-(2-chloro-4-{[3-(2,6-dichlorophenyl)-5-phenyl-1,2-oxazol-4-yl]methoxy}phenyl)ethenyl]benzoic acid]
  EC50: 15.8 µM

## O=C(O)c1cccc(NC(=O)c2ccc(OCc3c(-c4c(Cl)cccc4Cl)noc3-c3ccc(-c4ccccc4)cc3)cc2Cl)c1 [3-[(2-chloro-4-{[3-(2,6-dichlorophenyl)-5-(4-phenylphenyl)-1,2-oxazol-4-yl]methoxy}benzene)amido]benzoic acid]
  EC50: 3.7 µM

From BindingDB's records for doi:10.1016/j.bmc.2007.01.046 (University of Tokyo, 2007)
